The test system of the test is PC-3 cell proliferation. Kind of test: Cell proliferation assay (WST-1), PC-3. It is filed as cell-based. The settings on record: Homo sapiens; PC-3 cells, WST-1 readout; read-out: inhibitory activity against PC-3 cell proliferation (IC50 range). As for the experimental part: A panel of cancer cell lines was obtained from the DCTP Tumor Repository, National Cancer Institute (Frederick, Md.) or ATCC (Rockville, Md.). Cell cultures were maintained in Hyclone RPMI 1640 medium (Logan, Utah) supplemented with 10% fetal bovine serum and 20 mM HEPES buffer, final pH 7.2, at 37° C. with a 5% CO2 atmosphere. Cultures were maintained at sub-confluent densities. Human umbilical vein endothelial cells (HUVEC) were purchased from Clonetics, a division of Cambrex (Walkersville, Md.). Cultures were established from cryopreserved stocks using Clonetics EGM-2 medium supplemented with 20 mM HEPES, final pH 7.2, at 37° C. with a 5% CO2 atmosphere.
For proliferation assays, cells were seeded with the appropriate medium into 96 well plates at 1,000-2,500 cells per well, depending on the cell line, and were incubated overnight. The following day, test compound, DMSO solution (negative control), or Actinomycin D (positive control) was added to the appropriate wells as 10× concentrated stocks prepared in phosphate buffered saline. The cell plates were then incubated for an additional 2-5 days, depending on the cell line, to allow proliferation to occur. To measure cell density, 50 μL of WST-1 solution (Roche Applied Science, Ind.) diluted 1:5 in phosphate buffered saline was added to each well, and the cells incubated for an additional 1-5 hrs., again depending on the cell line. Optical density was determined for each well at […] using a Tecan GeniosPro plate reader (RTP, NC). The percentage of cell growth was determined by comparing the cell growth in the presence of test compounds to the cells treated with DMSO vehicle (control, 100% growth) and cells treated with Actinomycin D (10 μM, 0% growth). […]
Background: Tetrazolium assays rely on reduction of a dye to a coloured formazan, in cell work by metabolically active cells.

Consider `CC1(C)CC(=O)c2c(-c3ccccc3)cn(-c3ccc(C(N)=O)cc3)c2C1` [Compound 110, 4-(6,6-dimethyl-4-oxo-3-phenyl-4,5,6,7-tetrahydro-1H-indol-1-yl)benzamide], for which the IC50 fell in the range of 5000 to 50000 nM.

Regarding `Cc1cc(Nc2cc(-n3c(C)cc4c3CC(C)(C)CC4=O)ccc2C(N)=O)no1` [Compound 84, 2-[(5-methylisoxazol-3-yl)amino]-4-(2,6,6-trimethyl-4-oxo-4,5,6,7-tetrahydro-1H-indol-1-yl)benzamide], the IC50 lay within 500 to 5000 nM.

As for `CC1(C)CC(=O)c2c(C(F)(F)F)nn(-c3ccc(C(N)=O)c(NC4CCSCC4)c3)c2C1` [Compound 31, 4-(6,6-Dimethyl-4-oxo-3-trifluoromethyl-4,5,6,7-tetrahydro-indazol-1-yl)-2-(tetrahydro-thiopyran-4-ylamino)-benzamide], the IC50 was below 500 nM.

With `COc1ccc(Nc2cc(-n3nc(C)c4c3CC(C)(C)CC4=O)ccc2C(N)=O)cc1` [Compound 114, 2-[(4-methoxyphenyl)amino]-4-(3,6,6-trimethyl-4-oxo-4,5,6,7-tetrahydro-1H-indazol-1-yl)benzamide], the IC50 was below 500 nM.

As for `Cc1cn(-c2ccc(C(N)=O)c(NCCNC(=O)CO)c2)c2c1C(=O)CC(C)(C)C2` [Compound 112, 2-{[2-(glycoloylamino)ethyl]amino}-4-(3,6,6-trimethyl-4-oxo-4,5,6,7-tetrahydro-1H-indol-1-yl)benzamide], the IC50 was 5000 to 50000 nM.

In the case of `COc1ccc(Nc2cc(-n3c(C)cc4c3CC(C)(C)CC4=O)ccc2C(N)=O)cc1OCCCN(C)C` [Compound 93, 2-({3-[3-(dimethylamino)propoxy]-4-methoxyphenyl}amino)-4-(2,6,6-trimethyl-4-oxo-4,5,6,7-tetrahydro-1H-indol-1-yl)benzamide], the IC50 fell in the range of 500 to 5000 nM.

In the case of `Cc1nn(-c2ccc(C(N)=O)c(NC3CCN(C(=O)CCN4CCOCC4)CC3)c2)c2c1C(=O)CC(C)(C)C2` [Compound 127, 2-{[1-(3-morpholin-4-ylpropanoyl)piperidin-4-yl]amino}-4-(3,6,6-trimethyl-4-oxo-4,5,6,7-tetrahydro-1H-indazol-1-yl)benzamide], the IC50 was below 500 nM.

Take `COc1ccc(Nc2cc(-n3nc(C)c4c3CC(C)(C)CC4=O)ccc2C(N)=O)cc1OCCN(C)C` [Compound 27, 2-[3-(2-Dimethylamino-ethoxy)-4-methoxy-phenylamino]-4-(3,6,6-trimethyl-4-oxo-4,5,6,7-tetrahydro-indazol-1-yl)-benzamide]: the IC50 is below 500 nM.

Take `Cc1cn(-c2ccc(C(N)=O)c(Nc3ccncc3)c2)c2c1C(=O)CC(C)(C)C2` [Compound 97, 2-(pyridin-4-ylamino)-4-(3,6,6-trimethyl-4-oxo-4,5,6,7-tetrahydro-1H-indol-1-yl)benzamide]: the IC50 was below 500 nM.

In the case of `COc1ccc(Nc2cc(-n3cc(C)c4c3CC(C)(C)CC4=O)ccc2C(N)=O)cc1OCCN(C)C` [Compound 104, 2-({3-[2-(dimethylamino)ethoxy]-4-methoxyphenyl}amino)-4-(3,6,6-trimethyl-4-oxo-4,5,6,7-tetrahydro-1H-indol-1-yl)benzamide], the IC50 is below 500 nM.

In the case of `Cc1nn(-c2ccc(C(N)=O)c(NCC3CC3)c2)c2c1C(=O)CC(C)(C)C2` [Compound 100, 2-[(cyclopropylmethyl)amino]-4-(3,6,6-trimethyl-4-oxo-4,5,6,7-tetrahydro-1H-indazol-1-yl)benzamide], the IC50 is below 500 nM.

For `CN(C)S(=O)(=O)CCNc1cc(-n2nc(C(F)(F)F)c3c2CC(C)(C)CC3=O)ccc1C(N)=O` [Compound 136, 2-({2-[(dimethylamino)sulfonyl]ethyl}amino)-4-[6,6-dimethyl-4-oxo-3-(trifluoromethyl)-4,5,6,7-tetrahydro-1H-indazol-1-yl]benzamide], the IC50 is 500 to 5000 nM.

For `CC1(C)CC(=O)c2c(C(F)F)nn(-c3ccc(C(N)=O)c(NC4CC=CC4)c3)c2C1` [Compound 116, 2-(cyclopent-3-en-1-ylamino)-4-[3-(difluoromethyl)-6,6-dimethyl-4-oxo-4,5,6,7-tetrahydro-1H-indazol-1-yl]benzamide], the IC50 was below 500 nM.

As for `C#Cc1cccc(Nc2cc(-n3c(C)cc4c3CC(C)(C)CC4=O)ccc2C(N)=O)c1` [Compound 72, 2-[(3-ethynylphenyl)amino]-4-(2,6,6-trimethyl-4-oxo-4,5,6,7-tetrahydro-1H-indol-1-yl)benzamide], the IC50 is 500 to 5000 nM.

As to `Cc1nn(-c2ccc(C(N)=O)c(NC3CCN(C(=O)CN)CC3)c2)c2c1C(=O)CC(C)(C)C2` [Compound 129, 2-[(1-glycylpiperidin-4-yl)amino]-4-(3,6,6-trimethyl-4-oxo-4,5,6,7-tetrahydro-1H-indazol-1-yl)benzamide], the IC50 is 500 to 5000 nM.

Take `Cc1cc2c(n1-c1ccc(C(N)=O)c(Nc3ccc(O)cc3)c1)CC(C)(C)CC2=O` [Compound 82, 2-[(4-hydroxyphenyl)amino]-4-(2,6,6-trimethyl-4-oxo-4,5,6,7-tetrahydro-1H-indol-1-yl)benzamide]: the IC50 is 500 to 5000 nM.

On to `Cc1nn(-c2ccc(C(N)=O)c(NCCS(C)(=O)=O)c2)c2c1C(=O)CC(C)(C)C2` [Compound 113, 2-{[2-(methylsulfonyl)ethyl]amino}-4-(3,6,6-trimethyl-4-oxo-4,5,6,7-tetrahydro-1H-indazol-1-yl)benzamide], for which the IC50 is below 500 nM.

Take `Cc1cn(-c2ccc(C(N)=O)c(Nc3ccnc(OCCN(C)C)c3)c2)c2c1C(=O)CC(C)(C)C2` [Compound 108, 2-({2-[2-(dimethylamino)ethoxy]pyridin-4-yl}amino)-4-(3,6,6-trimethyl-4-oxo-4,5,6,7-tetrahydro-1H-indol-1-yl)benzamide]: the IC50 was below 500 nM.

With `CC1(C)CC(=O)c2c(C(F)(F)F)nn(-c3ccc(C(N)=O)c(NC4CCN(S(C)(=O)=O)CC4)c3)c2C1` [Compound 124, 4-[6,6-dimethyl-4-oxo-3-(trifluoromethyl)-4,5,6,7-tetrahydro-1H-indazol-1-yl]-2-{[1-(methylsulfonyl)piperidin-4-yl]amino}benzamide], the IC50 was below 500 nM.

Consider `Cc1nn(-c2ccc(C(N)=O)c(Nc3cccc([S+](C)[O-])c3)c2)c2c1C(=O)CC(C)(C)C2` (centres unmarked) [Compound 123, 2-{[3-(methylsulfinyl)phenyl]amino}-4-(3,6,6-trimethyl-4-oxo-4,5,6,7-tetrahydro-1H-indazol-1-yl)benzamide], for which the IC50 fell in the range of 500 to 5000 nM.

Regarding `Cc1cc2c(n1-c1ccc(C(N)=O)c(Nc3ccccc3)c1)CCCC2=O` [Compound 74, 2-anilino-4-(2-methyl-4-oxo-4,5,6,7-tetrahydro-1H-indol-1-yl)benzamide], the IC50 was 5000 to 50000 nM.

With `COCC(=O)Nc1cc(-n2cc(C)c3c2CC(C)(C)CC3=O)ccc1C(N)=O` [Compound 101, 2-[(methoxyacetyl)amino]-4-(3,6,6-trimethyl-4-oxo-4,5,6,7-tetrahydro-1H-indol-1-yl)benzamide], the IC50 lay within 500 to 5000 nM.

Regarding `COCCNc1cc(-n2cc(C)c3c2CC(C)(C)CC3=O)ccc1C(N)=O` [Compound 5, 2-(2-Methoxy-ethylamino)-4-(3,6,6-trimethyl-4-oxo-4,5,6,7-tetrahydro-indol-1-yl)-benzamide], the IC50 lay in the range of 500 to 5000 nM.

`Cc1nn(-c2ccc(C(N)=O)c(N[C@H](C)c3ccccc3)c2)c2c1C(=O)CC(C)(C)C2` [Compound 106, 2-{[(1R)-1-phenylethyl]amino}-4-(3,6,6-trimethyl-4-oxo-4,5,6,7-tetrahydro-1H-indazol-1-yl)benzamide]: the IC50 was 500 to 5000 nM.

Turning to `COc1cc(Nc2cc(-n3c(C)c(Cl)c4c3CC(C)(C)CC4=O)ccc2C(N)=O)cc(OC)c1OC` [Compound 81, 4-(3-chloro-2,6,6-trimethyl-4-oxo-4,5,6,7-tetrahydro-1H-indol-1-yl)-2-[(3,4,5-trimethoxyphenyl)amino]benzamide], the IC50 is below 500 nM.

Regarding `COc1cc(Nc2cc(-n3nc(C)c4c3CC(C)(C)CC4=O)ccc2C(N)=O)cc(OC)c1OC` [Compound 19, 4-(6,6-Dimethyl-4-oxo-3-methyl-4,5,6,7-tetrahydro-indazol-1-yl)-2-(3,4,5-trimethoxyanilino)-benzamide], the IC50 is below 500 nM.

(Values after patent publication US7928135B2, “Benzene, pyridine, and pyridazine derivatives” (Serenex, Inc., priority 2005, dated 2011).)
